Data published in US20060240083A1, “ANTIMICROBIAL AND IMMUNOSTIMULATING COMPOSITION” (BRENNEN MEDICAL, LLC, priority 2000, published 2006).

Tested on: bacteria
Test: Zone-of-inhibition test, overall outcome in words
Format: cell-based
Method: A standard zone-of-inhibition study was performed on the lotion and wound dressing exemplars described above. The zone-of-inhibition test involved placing a quantity of the prepared lotion or wound dressing in a petri dish, which had been cultured with a particular bacterium. The bacteria used in this test included: B. subtilis, B. vulgatus, C. albicans, E. coli, P. aeruginosa, and S. aureus. In each of these tests, the diameter of the prepared lotion or wound dressing placed in the cultured petri dishes was measured and recorded at the outset of the test. On the first, second, and fifth days thereafter the diameter of the zone of inhibition was measured and recorded. The zone of inhibition in this test was defined as the area surrounding the prepared lotion or wound dressing on the petri dish which was uninhabited by the bacteria of the specific culture. Table 1 reports data for the prepared lotion zone-of-inhibition test and Table 2 reports data for the prepared wound dressing zone-of-inhibition test.
Similar results are observed for a zone-of-inhibition test when a yeast-derived β-glucan is used in a medical composition as described herein.

Substance: β-glucan
- antimicrobial effect in the zone-of-inhibition test (in words) (overall outcome of the zone-of-inhibition tests): no inhibition of bacteria
- effect on bacterial growth (in words) (β-glucan as a microbial nutrient): promotes bacterial growth
